The results in this text go back to publication PMC9136259 (Food Chemistry: X, 2022).

Assay [1] concerns the target T1, xanthine oxidase (XOD, from bovine milk) (Bos taurus, UniProt P80457). Nature of the assay: intrinsic fluorescence quenching. The class given is binding. To be noted: 0.2 M PBS pH 7.5; 298, 304 and 310 K; static quenching.
Assay [2] addresses T1, xanthine oxidase (XOD, from bovine milk). Nature of the assay: xanthine oxidation, absorbance at […] nm, microplate. The class given is biochemical.

T1 sequence (P80457 2-1332): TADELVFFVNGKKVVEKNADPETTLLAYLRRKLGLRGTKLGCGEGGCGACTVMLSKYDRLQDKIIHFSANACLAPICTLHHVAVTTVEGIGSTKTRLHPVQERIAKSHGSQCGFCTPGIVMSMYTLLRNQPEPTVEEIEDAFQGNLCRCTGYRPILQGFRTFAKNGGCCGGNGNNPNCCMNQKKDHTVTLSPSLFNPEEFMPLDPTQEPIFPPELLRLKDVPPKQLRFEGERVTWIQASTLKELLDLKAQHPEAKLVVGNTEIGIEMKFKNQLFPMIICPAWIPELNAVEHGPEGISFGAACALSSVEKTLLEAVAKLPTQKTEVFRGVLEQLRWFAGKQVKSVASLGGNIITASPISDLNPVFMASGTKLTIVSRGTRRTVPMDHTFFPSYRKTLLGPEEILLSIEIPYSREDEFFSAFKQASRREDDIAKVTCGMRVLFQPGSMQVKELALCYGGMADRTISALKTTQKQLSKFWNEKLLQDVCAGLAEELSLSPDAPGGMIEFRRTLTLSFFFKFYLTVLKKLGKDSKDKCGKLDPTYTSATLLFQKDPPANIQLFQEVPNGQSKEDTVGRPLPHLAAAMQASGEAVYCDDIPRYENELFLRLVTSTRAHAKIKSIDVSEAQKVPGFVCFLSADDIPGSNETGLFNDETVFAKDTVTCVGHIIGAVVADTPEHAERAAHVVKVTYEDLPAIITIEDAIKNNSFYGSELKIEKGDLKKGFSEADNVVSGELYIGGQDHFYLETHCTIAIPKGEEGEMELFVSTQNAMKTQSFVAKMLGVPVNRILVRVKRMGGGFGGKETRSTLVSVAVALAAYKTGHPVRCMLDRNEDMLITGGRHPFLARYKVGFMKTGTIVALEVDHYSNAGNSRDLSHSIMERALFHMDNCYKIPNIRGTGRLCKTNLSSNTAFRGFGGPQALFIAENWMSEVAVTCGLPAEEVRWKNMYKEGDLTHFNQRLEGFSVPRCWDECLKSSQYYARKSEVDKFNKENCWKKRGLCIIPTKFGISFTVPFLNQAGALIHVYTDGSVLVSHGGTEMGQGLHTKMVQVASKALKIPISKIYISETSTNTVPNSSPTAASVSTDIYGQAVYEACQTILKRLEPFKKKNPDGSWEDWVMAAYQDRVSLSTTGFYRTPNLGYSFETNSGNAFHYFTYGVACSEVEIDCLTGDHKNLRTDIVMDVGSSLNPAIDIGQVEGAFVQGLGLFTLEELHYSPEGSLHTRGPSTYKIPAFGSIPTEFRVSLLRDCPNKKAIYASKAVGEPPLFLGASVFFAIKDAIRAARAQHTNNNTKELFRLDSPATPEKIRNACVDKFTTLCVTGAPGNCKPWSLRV

Take `CC(=O)c1c(O)cccc1O` [2,6-Dihydroxyacetophenone]: in assay [1], the “intrinsic fluorescence quenching (Stern-Volmer), excitation 280 nm” value (from here on “intrinsic fluorescence quenching”) is “fluorescence quenching mechanism of DHAP, 4-HPEA and HBA for XOD were a single type”. Besides, half-maximal inhibition in assay [2] (IC50) required 1240 ± 20 µM.

For the compound `O=Cc1ccc(O)cc1` [4-Hydroxybenzaldehyde], the “intrinsic fluorescence quenching” value in assay [1] was “fluorescence quenching mechanism of DHAP, 4-HPEA and HBA for XOD were a single type”. Besides, in assay [2], the IC50 was determined as 2.67 ± 0.9 µM.

For `OCCc1ccc(O)cc1` [4-Hydroxyphenethyl alcohol], the “intrinsic fluorescence quenching” value in assay [1] was “fluorescence quenching mechanism of DHAP, 4-HPEA and HBA for XOD were a single type”. Besides, the IC50 in assay [2] was 24500 ± 800 µM.

What is called IC50 is the concentration that inhibits the measured activity by half.
